Test results published in article PMC6696373 (Molecules, 2019).
“Also recorded” adds a separate entry of the source. Where no end group is shown, it is not given here.

Legend:
Caco-2 cell monolayers [1] = settings: cited from earlier work
Description: To elucidate the transepithelial transport pathway of WGAPSL, some inhibitors, such as cytochalasin D, wortmannin, sodium azide, and Gly-Pro, were added to Caco-2 cell monolayers (Figure 4).

Caco-2 cell monolayers [2] = settings: cited from earlier work; remark: listed apart in the source
Description: The apparent permeability coefficient (Papp) value reflects the velocity of passage through the epithelium.

[3] = Caco-2 cell monolayers in HBSS, apical (AP) and basolateral (BL) sides; settings: human, 37 °C, up to 120 min
[4] = tested on: 1:10,000 pepsin, then 1:250 trypsin; test: simulated gastrointestinal digestion: pepsin in HBSS at pH 2.0, then trypsin at pH 7.5; settings: 37 °C, up to 90 min (pepsin) then 4 h (trypsin)
Caco-2 cell monolayers [5] = test: Effects of transport pathway inhibitors on peptide transport in Caco-2 cell monolayers; format: in vitro ADME, human; settings: Caco-2 AP→BL, 2 mM in HBSS pH 7.4, 120 min, LC-MS
Description: Prior to transport experiments, Caco-2 cell monolayers were gently rinsed with HBSS, and then incubated for 30 min at 37 °C in 5% CO2. Afterwards, HBSS was drawn from both the AP side and BL side of all wells. HBSS (0.1 mL) with 2 mM WGAPSL was added to the AP side and 0.6 mL of fresh HBSS was added to the BL side. All transwell plates were incubated at 37 °C in 5% CO2 for 30, 60, 90, or 120 min. The transport experiment was done in triplicate for three consecutive days after 21 days, in which the cell model was developed.
Four inhibitors, including transport inhibitors cytochalasin D (a cell tight junction disruptor, 0.5 μg/mL), wortmannin (transcytosis inhibitor, 500 nM), sodium azide (ATP synthesis inhibitor, 10 mM), and Gly-Pro (transport peptide PepT 1 substrate, 10 mM) were applied to identify the transport routes of the peptide. After 120 min, the concentration of the peptide was determined in the basolateral samples [6].
Analysis of AP and BL samples gathered after the transport of WGAPSL across Caco-2 cells was performed by Agilent LC-MS (6420 Triple Quad, […]). A symmetrical 4.6 × 250 mm C18 column (GL Sciences, Tokyo, Japan) was used for fragments separations. The analysis was done in the MS Scan mode, and the injection volume was set to 20 μL. The peptide was applied in formic acid as an organic regulator to improve the MS signal of the peptide. Solvents A and B were formic acid/milli Q water (0.1:100, v/v) and formic acid/acetonitrile (0.1:100, v/v). For WGAPSL, the sample elution was run at 0.7 mL/min using a linear gradient of solvent B in A from 18% to 43% for 25 min, 43–100% for 5 min, and 100–18% for 10 min to equalize the column. The accumulation and ionization conditions in the ion trap were optimized automatically, and the target mass of the molecular ion was as follows: m/z 630.633 (WGAPSL).

Caco-2 cells = test: CCK-8 cytotoxicity assay; format: cell-based, human; settings: 2 h incubation then 4 h with CCK-8, 37 °C, absorbance, three replications
Description: (§1) The effects of the WGAPSL peptide on Caco-2 cell proliferation were observed using the CCK-8 cell counting kit (Dojindo, Japan). The WST-8 (2-(2-methoxy-4-nitrophenyl)-3-(4-nitrophenyl)-5-(2,4-disulfophenyl)-2H-tetrazolium, monosodium salt) reagent was used based on the kit specifications. Caco-2 cells were plated in 96-well culture plates in a final volume of 100 μL/well of culture medium (1 × 10^5 cells/well) at 37 °C in 5% CO2 for 24 h and incubated with 1–10 mM WGAPSL (diluted in DMEM) or DMEM only for 2 h, followed by incubation with 10 μL CCK-8 and incubation for another 4 h and then the absorbance was measured.

CCK-8 cytotoxicity assay = format: cell-based, human; settings: human, Caco-2, 10 mM peptide in DMEM, 2 h incubation then 4 h with CCK-8, 37 °C, absorbance, three replications, read-out: Survival rate of Caco-2 cells
Description: as §1

pepsin and trypsin = test: Simulated gastrointestinal digestion (two-stage pepsin then trypsin hydrolysis); format: in vitro ADME; settings: 1 mg/mL in HBSS, pepsin pH 2.0, E/S 1:50 w/w, 37 °C, 90 min, then trypsin pH 7.5, E/S 1:50 w/w, 4 h, LC-MS, mean ± spread
Description: Simulated gastrointestinal digestion was done based on the method of Quirós et al.. Synthetic peptide (1 mg/mL) was prepared in HBSS and acidified with HCl to reach pH 2.0, then hydrolyzed with 1:10,000 pepsin at an enzyme/substrate ratio of 1:50 (w/w), and incubated in constant temperature water oscillation at 37 °C for 90 min with a low shaking rate (120 rpm). After gastric digestion, samples were adjusted to pH 7.5 with saturated NaHCO3 and 1:250 trypsin was added at an enzyme/substrate ratio of 1:50 (w/w), and incubated in constant temperature water oscillation at 37 °C for 4 h with a low shaking rate (120 rpm). Reactions were stopped in a boiling water bath for 10 min. Digested samples were centrifuged (3K15, SIGMA Laborzentrifugen GmbH, Germany) at 30,000× g at 4 °C for 20 min and diluted 100 times to analyze peptide concentrations using liquid chromatography-tandem mass spectrometry (LC-MS, 1200, Agilent, CA, USA).

Caco-2 cell monolayers [6] = test: Transepithelial transport across Caco-2 cell monolayers; format: in vitro ADME, human; settings: concluded from the efflux ratio in Caco-2 monolayers
Description: Caco-2 cells were obtained from China Infrastructure of Cell Line Resource (Beijing, China) and were cultured based on the method of Zhang et al.. Cells were cultured in MEM containing 10% fetal bovine serum, 1 mM nonessential amino acid solution, 1% penicillin-streptomycin, and 1% HEPES buffer. Caco-2 cells were seeded at 5 × 10^5 cells/mL in 25 cm^2 tissue culture flasks, and incubated at 37 °C in 5% CO2 with 95% humidity. The passage number of the cells used in the study was between 30 and 40. The medium in cell cultures were replaced every two days and detached from 70–80% confluency using 0.05% trypsin and 0.02% Ethylene Diamine Tetraacetic Acid (EDTA) solution. For the transport experiments, Caco-2 cells were seeded into a collagen-coated transwell plate (6.5 mm diameter, 0.4 μm pore size Corning Costar) at a density of 1 × 10^5 cells/well. […]
The bilateral transport experiments also assessed transport from the BL to AP side. […]
The Papp values were calculated as follows (Equation (1)):(1) Papp=dQ/dt×1/A×1/C0 where dQ/dt is the permeability rate (mmol/s); A is the membrane area (cm^2); and C0 is the initial concentration of peptide solution in the donor chamber (mM). […]
A standard curve was prepared with a synthetic peptide diluted in HBSS, and the peptide concentrations were 0–3.9 μM. The curve was analyzed as indicated above for the BL samples. […]

Substance: Gln-Ile-Gly-Leu-Phe [QIGLF]
- Change of Papp value after cytochalasin D treatment (Caco-2 cell monolayers [1]): significantly (p < 0.05) increased

Substance: Val-Pro-Pro [VPP]
- Papp value (Caco-2 cell monolayers [2]): 0.05 nm/s

Substance: WGAPSL
- cleaved bond [3]: W-G, 120 min; also recorded: P-S, 120 min; also recorded: S-L, 120 min
- fragment found [4]: APSL and PSL and GAPSL and WGA and WG

Substance: WGAPSL [WGAPSL, Trp-Gly-Ala-Pro-Ser-Leu]
- Effect of wortmannin on peptide concentration (BL side) (Caco-2 cell monolayers [5]; 30 min preincubation with 500 nM wortmannin (transcytosis inhibitor)): did not significantly (p > 0.05) affect
- Effect of Gly-Pro on peptide transport (Caco-2 cell monolayers [5]; 30 min preincubation with 10 mM Gly-Pro (PepT1 substrate)): not significantly (p > 0.05) decreased
- Effect of sodium azide on peptide transport (Caco-2 cell monolayers [5]; 30 min preincubation with 10 mM sodium azide (ATP synthesis inhibitor)): A similar result
- Increase of peptide concentration in the BL side vs control, with cytochalasin D (Caco-2 cell monolayers [5]; 30 min preincubation with cytochalasin D 0.5 μg/mL (tight junction disruptor), p < 0.05): 66%
- Cytotoxicity for Caco-2 cells (Caco-2 cells; 1 mM peptide in DMEM): non-toxic
- Cytotoxicity for Caco-2 cells (Caco-2 cells; 2 mM peptide in DMEM): non-toxic
- viability at 2 h, 10000 µM (CCK-8 cytotoxicity assay): 27%
- Stability (intact peptide) after simulated gastric and intestinal digestion (pepsin and trypsin): 83.9% ± 1.98
- P-glycoprotein substrate status (Caco-2 cell monolayers [6]): not a substrate of P-glycoprotein
